# Test results: publication PMC7490411 (Signal Transduction and Targeted Therapy, 2020)
# How the values were obtained:
# [1] = tested on: Mino cells; assay: NK-cell-mediated ADCC, LDH release cytotoxicity assay, Rituximab; type: cell-based, human
# Protocol: The cytotoxicity of NK cells was measured using the CyQUANT™ LDH Cytotoxicity Assay Kit (Invitrogen™, #C20300) according to the manufacturer’s instructions. Briefly, enriched NK cells (6 × 10^5 /ml) were cultured with the same volume of Mino cell and SK-OV-3 cell (1-2 × 10^4 /ml) in a 96-well plate for 4 h with Rituximab and Herceptin (10 μg/mL) and CHMFL-BTK-85 or PCI32765 at 37°C in a humidified CO2 incubator prior to removal of the supernatant for lactate dehydrogenase (LDH) release measurements. Calculate % Cytotoxicity by using the following formula: %Cytotoxicity = (Compound-treated LDH activity-Spontaneous LDH activity)/(Maximum LDH activity-Spontaneous LDH activity)*100.
# [2] = tested on: ABL1(F317I)-nonphosphorylated; assay: KINOMEscan; type: binding; conditions: 1000 nM
# [3] = tested on: ABL1(Y253F)-phosphorylated; assay: KINOMEscan; type: binding; conditions: 1000 nM
# [4] = tested on: ANKK1; assay: KINOMEscan; type: binding; conditions: 1000 nM
# [5] = tested on: CAMK1; assay: KINOMEscan; type: binding; conditions: 1000 nM
# [6] = tested on: CAMK2G; assay: KINOMEscan; type: binding; conditions: 1000 nM
# [7] = tested on: CDK11; assay: KINOMEscan; type: binding; conditions: 1000 nM
# [8] = tested on: CDK7; assay: KINOMEscan; type: binding; conditions: 1000 nM
# [9] = tested on: CHEK2; assay: KINOMEscan; type: binding; conditions: 1000 nM
# [10] = tested on: CLK3; assay: KINOMEscan; type: binding; conditions: 1000 nM
# [11] = tested on: CSK; assay: KINOMEscan; type: binding; conditions: 1000 nM
# [12] = tested on: DAPK1; assay: KINOMEscan; type: binding; conditions: 1000 nM
# [13] = tested on: DYRK2; assay: KINOMEscan; type: binding; conditions: 1000 nM
# [14] = tested on: EGFR(T790M); assay: KINOMEscan; type: binding; conditions: 1000 nM
# [15] = tested on: EPHB4; assay: KINOMEscan; type: binding; conditions: 1000 nM
# [16] = tested on: ERBB2; assay: KINOMEscan; type: binding; conditions: 1000 nM
# [17] = tested on: FGFR3; assay: KINOMEscan; type: binding; conditions: 1000 nM
# [18] = tested on: FGFR4; assay: KINOMEscan; type: binding; conditions: 1000 nM
# [19] = tested on: FGR; assay: KINOMEscan; type: binding; conditions: 1000 nM
# [20] = tested on: FLT3(ITD,D835V); assay: KINOMEscan; type: binding; conditions: 1000 nM
# [21] = tested on: FLT3(K663Q); assay: KINOMEscan; type: binding; conditions: 1000 nM
# [22] = tested on: FLT3(N841I); assay: KINOMEscan; type: binding; conditions: 1000 nM
# [23] = tested on: ICK; assay: KINOMEscan; type: binding; conditions: 1000 nM
# [24] = tested on: INSRR; assay: KINOMEscan; type: binding; conditions: 1000 nM
# [25] = tested on: JNK1; assay: KINOMEscan; type: binding; conditions: 1000 nM
# [26] = tested on: LRRK2; assay: KINOMEscan; type: binding; conditions: 1000 nM
# [27] = tested on: LTK; assay: KINOMEscan; type: binding; conditions: 1000 nM
# [28] = tested on: MAP4K2; assay: KINOMEscan; type: binding; conditions: 1000 nM
# [29] = tested on: MARK4; assay: KINOMEscan; type: binding; conditions: 1000 nM
# [30] = tested on: MET(Y1235D); assay: KINOMEscan; type: binding; conditions: 1000 nM
# [31] = tested on: MKK7; assay: KINOMEscan; type: binding; conditions: 1000 nM
# [32] = tested on: MRCKB; assay: KINOMEscan; type: binding; conditions: 1000 nM
# [33] = tested on: MST3; assay: KINOMEscan; type: binding; conditions: 1000 nM
# [34] = tested on: MTOR; assay: KINOMEscan; type: binding; conditions: 1000 nM
# [35] = tested on: MYO3B; assay: KINOMEscan; type: binding; conditions: 1000 nM
# [36] = tested on: NEK11; assay: KINOMEscan; type: binding; conditions: 1000 nM
# [37] = tested on: NEK5; assay: KINOMEscan; type: binding; conditions: 1000 nM
# [38] = tested on: PFCDPK1(P.falciparum); assay: KINOMEscan; type: binding; conditions: 1000 nM
# [39] = tested on: PIK3CA(I800L); assay: KINOMEscan; type: binding; conditions: 1000 nM
# [40] = tested on: PIK3CD; assay: KINOMEscan; type: binding; conditions: 1000 nM
# [41] = tested on: PIK3CG; assay: KINOMEscan; type: binding; conditions: 1000 nM
# [42] = tested on: PIK4CB; assay: KINOMEscan; type: binding; conditions: 1000 nM
# [43] = tested on: PIM1; assay: KINOMEscan; type: binding; conditions: 1000 nM
# [44] = tested on: PIP5K1C; assay: KINOMEscan; type: binding; conditions: 1000 nM
# [45] = tested on: PRKX; assay: KINOMEscan; type: binding; conditions: 1000 nM
# [46] = tested on: ROCK1; assay: KINOMEscan; type: binding; conditions: 1000 nM
# [47] = tested on: RPS6KA5(Kin.Dom.2-C-terminal); assay: KINOMEscan; type: binding; conditions: 1000 nM
# [48] = tested on: SIK; assay: KINOMEscan; type: binding; conditions: 1000 nM
# [49] = tested on: TESK1; assay: KINOMEscan; type: binding; conditions: 1000 nM
# [50] = tested on: TNK2; assay: KINOMEscan; type: binding; conditions: 1000 nM
# [51] = tested on: TSSK1B; assay: KINOMEscan; type: binding; conditions: 1000 nM
# [52] = tested on: WNK2; assay: KINOMEscan; type: binding; conditions: 1000 nM
compound,measurement,setting,value
C=CC(=O)Nc1cc(Nc2cc(-c3cccc(NC(=O)c4cc5c(s4)CCCC5)c3C)cn(C)c2=O)ccc1N1CCN(CC)CC1 [CHMFL-BTK-85],effect on antibody-dependent NK-cell-mediated cytotoxicity (ADCC),[1],did not affect
same,Percent Control,[2],99%
same,Percent Control,[3],83%
same,Percent Control,[4],100%
same,Percent Control,[5],100%
same,Percent Control,[6],100%
same,Percent Control,[7],82%
same,Percent Control,[8],96%
same,Percent Control,[9],94%
same,Percent Control,[10],80%
same,Percent Control,[11],80%
same,Percent Control,[12],98%
same,Percent Control,[13],98%
same,Percent Control,[14],98%
same,Percent Control,[15],67%
same,Percent Control,[16],99%
same,Percent Control,[17],82%
same,Percent Control,[18],92%
same,Percent Control,[19],20%
same,Percent Control,[20],100%
same,Percent Control,[21],100%
same,Percent Control,[22],83%
same,Percent Control,[23],100%
same,Percent Control,[24],90%
same,Percent Control,[25],100%
same,Percent Control,[26],100%
same,Percent Control,[27],100%
same,Percent Control,[28],100%
same,Percent Control,[29],66%
same,Percent Control,[30],97%
same,Percent Control,[31],99%
same,Percent Control,[32],75%
same,Percent Control,[33],66%
same,Percent Control,[34],100%
same,Percent Control,[35],92%
same,Percent Control,[36],100%
same,Percent Control,[37],100%
same,Percent Control,[38],100%
same,Percent Control,[39],100%
same,Percent Control,[40],100%
same,Percent Control,[41],100%
same,Percent Control,[42],100%
same,Percent Control,[43],95%
same,Percent Control,[44],99%
same,Percent Control,[45],95%
same,Percent Control,[46],100%
same,Percent Control,[47],66%
same,Percent Control,[48],99%
same,Percent Control,[49],96%
same,Percent Control,[50],64%
same,Percent Control,[51],88%
same,Percent Control,[52],87%
